Results published in publication PMC7915902, “Preclinical Evaluation of [^18F]FACH in Healthy Mice and Piglets: An ^18F-Labeled Ligand for Imaging of Monocarboxylate Transporters with PET” (International Journal of Molecular Sciences, 2021).
pIC50: −log10 of the molar value.

Assays:
MCTs [1] = assay: Compartmental kinetic modelling of PET data in piglets; format: in vivo, piglet; details: piglets; for K1 / VT / k2: 1-TCM, control; for BPND: (VT(control)/VT(pre-treated)) − 1; for K1 (representative 1-TCM curve fit) / k2 (representative 1-TCM curve fit): control study, Figure S12
Protocol: (§1) Table 4 includes the results of 1-tissue-compartment kinetic modelling (1-TCM) of [^18F]FACH in the kidney cortex and the liver of the control and pre-treated mouse groups (α-CCA-Na and reference compound). […] The BPND was estimated as the ratio of [VT(control)/VT(pre-treatment)] − 1.
(§2) Kinetic analysis of reconstructed datasets was performed with PMOD software. First, image derived arterial input functions (IDIFs) were obtained from the left ventricle in mice and from an artery close to the kidney in piglet studies. IDIFs were corrected for partial volume effects, plasma fraction from hematocrit values (individually determined for each piglet directly before PET imaging; for mice set to 0.51 according to CD-1 Mouse Hematology sheet from Charles River Laboratories, 2011) and radio-metabolites (measured for piglets, and set to zero for mice). Tri-exponential metabolite-corrected fitted input functions were used for one and two tissue compartment modelling (1-TCM/2-TCM) of time activity curves (TACs) in tissue volumes of interest (VOIs). For both species the specific blood volume was set to 0.15 mL g^−1 in the kidney cortex and 0.128 mL g^−1 in the liver, according to published values.

MCTs [2] = format: in vivo, piglet; details: pig, in vivo
Protocol: The piglets (n = 6) were inititally anaesthetised with intramuscular injections of stresnil and ursotamin, and anaesthesia was maintained with intravenous ursotamin and midazolam, as required. The hematocrit was measured in an ear vein blood sample collected just prior to imaging. Either saline (n = 3) or 25 mg/kg α-CCA-Na (n = 3) in saline was administrated ten min before i.v. administration of [^18F]FACH (261–327 MBq, corresponding to 218–852 pmol/kg) via an ear vein. Imaging was performed with a simultaneous hybrid PET/MR system (mMR Biograph; Siemens, Erlangen, Germany) equipped with dedicated phased-array surface. PET data were reconstructed into a 128 × 128 matrix (voxel size: 1.40 × 1.40 × 2.03 mm^3) using the built-in OSEM3D algorithm with eight iterations, 21 subsets, and a 3-mm Gaussian filter. The attenuation and decay corrected dynamic sequence consisted of 32 frames as follows: 1 × 15, 11 × 30, 1 × 45, 5 × 60, 1 × 90, 5 × 120, 1 × 180, 4 × 240, 1 × 300, 2 × 360 s, whereas activity concentrations in VOIs are represented in units of SUV or percentage of injected dose (%/ID). After completing the dynamic PET recording, piglets were euthanized with an i.v. overdose of T61 (Intervet Deutschland GmbH, Unterschleißheim, Germany) and tissues were sampled for radio-metabolism studies in selected animals.
(§3) The analysis of reconstructed datasets was performed with PMOD software (v4.103, PMOD Technologies LLC, Zurich, Switzerland).
(§4) Data are shown in mean ± standard deviation (SD). Group differences were tested by Student’s t-test, with p < 0.05 designated as significant. Area Under the Curves (AUCs) and corresponding 95% confidence intervals (CI95%s) were calculated with GraphPad Prism (v.8.2) following the assumptions described by Gagnon et al..

MCTs [3] = assay: Dynamic PET/MRI in mice with pre-treatment; format: in vivo, mouse; details: mice, PET
Protocol: The biodistribution of [^18F]FACH in mice was assessed by small animal PET (Nanoscan, Mediso, Budapest, Hungary) with dynamic 60 min emission recordings, followed by T1 weighted GRE MR (TR = 15.0 ms, TE = 2.4 ms, FA = 25°) imaging for anatomical correlations and attenuation correction. The mice (n = 20) weighing 32.2 ± 2.9 g were anaesthetised with 2% isoflurane in 60% oxygen, and placed on a thermostatically heated animal bed. The animals then received i.v. injections of 0.9% saline (control), reference compound (10 mg/kg), or α-CCA-Na (25 mg/kg) ten min prior or 20 min after (displacement studies) [^18F]FACH administration (2.3–8.6 MBq, 0.5–11.2 nmol/kg). List mode PET data were binned as a series of attenuation-corrected sinogram frames (12 × 10 s, 6 × 30 s, 5 × 60 s and 10 × 300 s) and were reconstructed by Ordered Subset Expectation Maximization (OSEM3D) with four iterations, six subsets and a voxel size of 0.4 mm³ (Nucline v2.01, Mediso).
as §3, §4

plasma protein = assay: Plasma protein binding ex vivo (ultrafiltration); format: in vitro ADME; details: mouse plasma, 70 min after i.v. injection
Protocol: To measure plasma protein binding in vitro, a 1 mL portion of piglet plasma was incubated with 4.9 MBq [^18F]FACH (10 µL) on a shaker (400 rpm) for 20 min at 37 °C. The plasma protein binding was also measured ex vivo in 10 µL portions of mouse plasma from retro-orbital blood samples collected 70 min after intravenous (i.v.) injection of 3.7 MBq [^18F]FACH via a tail vein. The free and bound fractions of [^18F]FACH were separated by centrifugation at room temperature (2000 g for ten minutes, Centrifree® YM-30, Ultrafiltration Device; Merck KGaA, Darmstadt, Germany). Radioactivity was measured in aliquots of ultrafiltrate and in prefiltration plasma samples, using a Wizard 2470 γ-counter (PerkinElmer LAS, Rodgau, Germany), and the free fraction in the plasma (fp) calculated from the concentration ratio.

MCT1 = tested on: MCT1; design: method as in PMID 31017677; details: L-[14C]lactate uptake, rat brain endothelial cells; read-out: IC50 towards MCT1; cited from earlier work
MCTs [4] = assay: Compartmental kinetic modelling of PET data in mice; format: in vivo, mouse; details: for K1 / VT / k2: 1-TCM; for K1 (representative 1-TCM curve fit) / k2 (representative 1-TCM curve fit): control study, Figure S12
Protocol: as §1, §2

K1 (MCTs [1]; kidney cortex): 0.69 ± 0.11 mL/g/min | VT (MCTs [1]; kidney cortex): 11.29 ± 1.47 mL/g | k2 (MCTs [1]; kidney cortex): 0.06 ± 0.01 min⁻¹ | K1 (representative 1-TCM curve fit) (MCTs [1]; kidney cortex): 0.82 mL/g/min | k2 (representative 1-TCM curve fit) (MCTs [1]; kidney cortex): 0.08 min⁻¹ | K1 (MCTs [1]; liver): 0.64 ± 0.10 mL/g/min | VT (MCTs [1]; liver): 5.12 ± 1.27 mL/g | k2 (MCTs [1]; liver): 0.13 ± 0.05 min⁻¹ | K1 (representative 1-TCM curve fit) (MCTs [1]; liver): 0.67 mL/g/min | k2 (representative 1-TCM curve fit) (MCTs [1]; liver): 0.14 min⁻¹ | peak TAC SUV kidney cortex (MCTs [2]): 15.3 ± 2.5 | peak TAC SUV kidney medulla (MCTs [2]): 66.1 ± 27.7 | peak TAC SUV liver (MCTs [2]): 13.2 ± 2.7 | peak TAC SUV whole blood (MCTs [3]; left heart ventricle VOI, all three treatment groups): 6.8 ± 1.3 | AUC0–60 min gall bladder (MCTs [3]; vehicle pre-treatment): 481 SUV min | AUC0–60 min kidney cortex (MCTs [3]; vehicle pre-treatment): 290 SUV min | AUC0–60 min liver (MCTs [3]; vehicle pre-treatment): 450 SUV min | AUC0–60 min small intestine (MCTs [3]; vehicle pre-treatment): 99 SUV min | AUC0–60 min whole blood (MCTs [3]; vehicle pre-treatment): 59 SUV min | free plasma fraction (fp) (plasma protein): 0.07 | K1 (MCTs [4]; kidney cortex, control): 0.13 ± 0.06 mL/g/min | VT (MCTs [4]; kidney cortex, control): 8.60 ± 4.55 mL/g | k2 (MCTs [4]; kidney cortex, control): 0.02 ± 0.01 min⁻¹ | K1 (2-TCM) (MCTs [4]; kidney cortex, 2-TCM, control): 0.28±0.24 ml/ccm/min | VND (2-TCM) (MCTs [4]; kidney cortex, 2-TCM, control): 1.77±2.49 ml/ccm | k2 (2-TCM) (MCTs [4]; kidney cortex, 2-TCM, control): 1.54 ± 2.43 min⁻¹ | k3 (2-TCM) (MCTs [4]; kidney cortex, 2-TCM, control): 0.77 ± 0.78 min⁻¹ | k4 (2-TCM) (MCTs [4]; kidney cortex, 2-TCM, control): 0.02 ± 0.02 min⁻¹ | K1 (representative 1-TCM curve fit) (MCTs [4]; kidney cortex): 0.16 mL/g/min | k2 (representative 1-TCM curve fit) (MCTs [4]; kidney cortex): 0.04 min⁻¹ | K1 (MCTs [4]; liver, control): 0.49 ± 0.24 mL/g/min | VT (MCTs [4]; liver, control): 6.47 ± 2.49 mL/g | k2 (MCTs [4]; liver, control): 0.08 ± 0.02 min⁻¹ | K1 (representative 1-TCM curve fit) (MCTs [4]; liver): 0.40 mL/g/min | k2 (representative 1-TCM curve fit) (MCTs [4]; liver): 0.09 min⁻¹
Structure (SMILES): CCCN(CCC[18F])c1ccc(/C=C(\C#N)C(=O)O)c(OC)c1 [[^18F]FACH, (E)-2-cyano-3-{4-[(3-[^18F]fluoropropyl)(propyl)amino]-2-methoxyphenyl}acrylic acid]
BPND (MCTs [1]; kidney cortex): 5.2 | BPND (MCTs [1]; liver): 0.18 | pIC50 (MCT1): 7.96 | BPND (MCTs [4]; liver, (VT(control)/VT(pre-treated)) − 1): 0.04
